Assay results taken from US12448369B2 (Edgewise Therapeutics, Inc., priority 2023, dated 2025).

Tests used:
[1] = molecular target: T1, Porcine ventricle myofibrils (ventricular myosin ATPase) (Sus scrofa, UniProt P79293); assay: Myofibril ATPase assay, porcine ventricle myofibrils; format: biochemical, porcine (Yucatan minipigs)
T1 construct: Myofibrils from porcine cardiac muscle was isolated from the left ventricle of Yucatan minipigs; tissue Exemplar Genetics; host or cells: left ventricle of Yucatan minipigs, myofibrils prepared in house
T1 sequence (P79293 whole entry): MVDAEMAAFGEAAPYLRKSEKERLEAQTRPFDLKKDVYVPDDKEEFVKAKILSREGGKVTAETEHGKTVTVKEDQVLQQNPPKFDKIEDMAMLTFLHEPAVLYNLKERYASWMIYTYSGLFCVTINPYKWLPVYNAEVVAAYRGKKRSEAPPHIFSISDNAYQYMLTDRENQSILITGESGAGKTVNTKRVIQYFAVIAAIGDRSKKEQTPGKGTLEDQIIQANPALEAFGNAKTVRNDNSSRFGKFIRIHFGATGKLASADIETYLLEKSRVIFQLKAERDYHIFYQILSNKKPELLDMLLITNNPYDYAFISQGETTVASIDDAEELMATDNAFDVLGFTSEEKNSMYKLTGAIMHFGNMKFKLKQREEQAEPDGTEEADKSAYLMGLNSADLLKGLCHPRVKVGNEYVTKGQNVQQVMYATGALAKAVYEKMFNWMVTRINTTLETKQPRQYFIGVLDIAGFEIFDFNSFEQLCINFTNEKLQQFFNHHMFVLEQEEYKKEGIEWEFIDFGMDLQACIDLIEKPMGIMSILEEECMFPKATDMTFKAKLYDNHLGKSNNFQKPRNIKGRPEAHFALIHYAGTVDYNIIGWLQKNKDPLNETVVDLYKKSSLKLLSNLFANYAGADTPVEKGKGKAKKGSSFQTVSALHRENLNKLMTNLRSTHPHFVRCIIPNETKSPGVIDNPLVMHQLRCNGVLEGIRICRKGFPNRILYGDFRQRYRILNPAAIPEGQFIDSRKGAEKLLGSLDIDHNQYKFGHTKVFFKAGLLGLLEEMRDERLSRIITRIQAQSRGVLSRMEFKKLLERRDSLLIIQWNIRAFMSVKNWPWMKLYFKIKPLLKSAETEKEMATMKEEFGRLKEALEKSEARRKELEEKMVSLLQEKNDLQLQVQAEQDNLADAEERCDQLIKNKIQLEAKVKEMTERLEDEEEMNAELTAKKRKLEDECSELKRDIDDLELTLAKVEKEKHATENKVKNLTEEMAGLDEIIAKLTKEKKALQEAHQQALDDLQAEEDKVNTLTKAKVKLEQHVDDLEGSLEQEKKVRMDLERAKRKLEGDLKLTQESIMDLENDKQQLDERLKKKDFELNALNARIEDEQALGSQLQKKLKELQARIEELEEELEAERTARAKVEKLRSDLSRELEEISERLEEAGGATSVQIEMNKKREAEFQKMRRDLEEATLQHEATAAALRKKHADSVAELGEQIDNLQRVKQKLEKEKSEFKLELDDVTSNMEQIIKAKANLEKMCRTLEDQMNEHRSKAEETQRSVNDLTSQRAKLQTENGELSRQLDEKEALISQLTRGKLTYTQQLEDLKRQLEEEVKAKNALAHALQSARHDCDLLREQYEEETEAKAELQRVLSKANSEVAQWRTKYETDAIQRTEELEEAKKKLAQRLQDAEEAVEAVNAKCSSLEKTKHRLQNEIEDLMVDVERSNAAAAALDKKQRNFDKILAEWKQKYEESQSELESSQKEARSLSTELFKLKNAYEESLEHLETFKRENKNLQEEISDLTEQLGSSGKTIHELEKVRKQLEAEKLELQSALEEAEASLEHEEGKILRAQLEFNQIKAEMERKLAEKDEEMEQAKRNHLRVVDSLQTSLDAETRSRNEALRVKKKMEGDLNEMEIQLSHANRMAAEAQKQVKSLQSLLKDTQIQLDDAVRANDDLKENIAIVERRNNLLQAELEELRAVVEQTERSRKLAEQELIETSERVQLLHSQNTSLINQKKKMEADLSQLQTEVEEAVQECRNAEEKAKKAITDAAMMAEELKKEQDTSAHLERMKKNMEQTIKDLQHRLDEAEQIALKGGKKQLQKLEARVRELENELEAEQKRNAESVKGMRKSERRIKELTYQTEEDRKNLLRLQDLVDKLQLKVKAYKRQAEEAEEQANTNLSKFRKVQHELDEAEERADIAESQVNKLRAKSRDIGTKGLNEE
Outline: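 Read-out: A340 kinetic, NADH consumption coupled to ADP via PK-LDH, 75 min. Yucatan minipig LV myofibrils, pCa buffer (PIPES/CaCl2/EGTA, pH 7.0). Linear-regression slope (mAU/min), vehicle = 100%, 4PL fit; Y75 or Y125 reported.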

[2] = system: Rabbit Psoas myofibrils (skeletal myosin ATPase); assay: Myofibril ATPase assay, rabbit psoas (skeletal) myofibrils; format: biochemical
Outline: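 ATPase activity of Triton-washed myofibrils was measured by PK/LDH coupling, following NADH loss at 340 nm every 1.5–2 min for 75 min in PIPES/Ca/EGTA buffer at pH 7.0. Slopes, normalized to vehicle (100%), were fitted to a 4-parameter logistic model. Values are Y75 (25% inhibition) or Y125 (activators).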

[3] = system: Porcine atria myofibrils (atrial myosin ATPase); assay: Myofibril ATPase assay, porcine atria myofibrils; format: biochemical
Outline: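 Porcine atrial myofibrils were tested in a PK/LDH-coupled system where ADP from myosin ATPase drives NADH oxidation. Absorbance at 340 nm was read every 1.5-2 min for 75 min and slopes were normalized to vehicle wells. A 4-parameter logistic fit gave Y75 (25% inhibition) or Y125 (activation) concentrations.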

[4] = Y75 value (no ‡ mark), porcine ventricle myofibrils
[5] = Y75 value (no ‡ mark), rabbit psoas myofibrils
[6] = Y75 value (no ‡ mark), porcine atria myofibrils
[7] = porcine ventricle myofibrils, Y75 value
[8] = rabbit psoas myofibrils, Y75 value
[9] = porcine atria myofibrils, Y75 value (75% activity relative to no compound)
[10] = Y75 value: concentration required to reduce myosin ATP-ase activity by 25%, Porcine Ventricle Prep pCa 25 GEOM_MEAN
[11] = Y75 value: concentration required to reduce myosin ATP-ase activity by 25%, Rabbit Psoas Prep pCa 25 GEOM_MEAN
[12] = Y75 value: concentration required to reduce myosin ATP-ase activity by 25%, Porcine Atria Prep pCa 25 GEOM_MEAN

Structure (SMILES): Cc1c(C(F)(F)C(=O)N[C@H](C)c2ncc(C#N)cc2F)c(=O)[nH]c2cccc(F)c12 (single isomer, unassigned) [compound 2538]
- Ventricular EC25 [1, 4]: 0.18 µM
- Skeletal EC25 [2, 5]: 110 nM
- Atrial EC25 [3, 6]: 0.17 µM

Structure (SMILES): COc1ccc([C@H](C)NC(=O)Cc2c(C)c3c(C)nccc3[nH]c2=O)cc1 (single isomer, unassigned) [compound 287]
- Ventricular EC25 [1, 7]: 100.00 µM
- Skeletal EC25 [2, 8]: 100000 nM
- Atrial EC25 [3, 9]: 100.00 µM

Structure (SMILES): Cc1c(CC(=O)N[C@H](C)c2ccc(C#N)nn2)c(=O)[nH]c2ccc(F)cc12 [compound 1119]
- Ventricular EC25 [1, 4]: 1.18 µM
- Skeletal EC25 [2, 5]: 220 nM
- Atrial EC25 [3, 6]: 0.48 µM

Structure (SMILES): Cc1nccc2[nH]c(=O)c(CC(=O)Nc3c[nH]c4cc(F)cc(F)c34)c(C)c12 [compound 228]
- Ventricular EC25 [1, 7]: 100.00 µM
- Skeletal EC25 [2, 8]: 100000 nM
- Atrial EC25 [3, 9]: 100.00 µM

Structure (SMILES): C[C@H](NC(=O)Cc1cc2cnccc2[nH]c1=O)c1ccc(F)cc1F [compound 441]
- Ventricular EC25 [1, 7]: 100.00 µM
- Skeletal EC25 [2, 8]: 1880 nM
- Atrial EC25 [3, 9]: 3.48 µM

Structure (SMILES): C[C@@H](NC(=O)Cc1c(C(F)(F)F)c2c(C3CC3)nccc2[nH]c1=O)c1ccc(C#N)cn1 (single isomer, unassigned) [compound 3005]
- Ventricular EC25 [1, 7]: 100.00 µM
- Skeletal EC25 [2, 8]: 100000 nM
- Atrial EC25 [3, 9]: 100.00 µM

Structure (SMILES): Cc1nc(C#N)cnc1[C@H](C)NC(=O)Cc1c(C)c2c(C#N)c(F)ccc2[nH]c1=O (single isomer, unassigned) [compound 2]
- Ventricular EC25 [1, 4]: 0.08 µM
- Skeletal EC25 [2, 5]: 20 nM
- Atrial EC25 [3, 6]: 0.09 µM

Structure (SMILES): C[C@H](NC(=O)Cc1c(C2CC2)c2cc(F)ccc2[nH]c1=O)c1ncc(C#N)cc1F [compound 40]
- Ventricular EC25 [1, 4]: 0.41 µM
- Skeletal EC25 [2, 5]: 20 nM
- Atrial EC25 [3, 6]: 0.47 µM

Structure (SMILES): Cc1c(CC(=O)N[C@@H](C)c2ncc(C#N)cc2F)c(=O)[nH]c2ccc(C(F)(F)F)nc12 [compound 147]
- Ventricular EC25 [1, 7]: 0.12 µM
- Skeletal EC25 [2, 8]: 60 nM
- Atrial EC25 [3, 9]: 0.02 µM

Structure (SMILES): CC(NC(=O)Cc1cc2c(F)c(F)ccc2[nH]c1=O)c1nc(C#N)cs1 (single isomer, unassigned) [compound 4009, N-(1-(4-cyanothiazol-2-yl)ethyl)-2-(5,6-difluoro-2-oxo-1,2-dihydroquinolin-3-yl)acetamide]
- Ventricular EC25 [1, 10]: 0.91 µM
- Skeletal EC25 [2, 11]: 1490 nM
- Atrial EC25 [3, 12]: 2.28 µM

Structure (SMILES): Cc1c(CC(=O)NC(C)c2cc(C#N)c(F)s2)c(=O)[nH]c2ccc(F)c(F)c12 (stereo not drawn) [compound 4001]
- Ventricular EC25 [1, 10]: 0.58 µM
- Skeletal EC25 [2, 11]: 160 nM
- Atrial EC25 [3, 12]: 0.26 µM

Structure (SMILES): Cc1nccc2[nH]c(=O)c(CC(=O)N[C@@H](C)c3cccnc3)c(C)c12 (single isomer, unassigned) [compound 323]
- Ventricular EC25 [1, 7]: 100.00 µM
- Skeletal EC25 [2, 8]: 100000 nM
- Atrial EC25 [3, 9]: 100.00 µM

Structure (SMILES): Cc1c(CC(=O)N[C@@H](C)c2ccc(F)cc2F)c(=O)[nH]c2ccncc12 [compound 448]
- Ventricular EC25 [1, 7]: 7.29 µM
- Skeletal EC25 [2, 8]: 170 nM
- Atrial EC25 [3, 9]: 0.65 µM

Structure (SMILES): Cc1ccc([C@@H](C)NC(=O)Cc2c(C)c3c(C)nccc3[nH]c2=O)cc1 (single isomer, unassigned) [compound 301]
- Ventricular EC25 [1, 7]: 100.00 µM
- Skeletal EC25 [2, 8]: 100000 nM
- Atrial EC25 [3, 9]: 100.00 µM

Structure (SMILES): Cc1c(CC(=O)N[C@H](C)c2ccc(C#N)cc2F)c(=O)[nH]c2ccnc(C#N)c12 (single isomer, unassigned) [compound 282]
- Ventricular EC25 [1, 7]: 1.16 µM
- Skeletal EC25 [2, 8]: 350 nM
- Atrial EC25 [3, 9]: 1.55 µM

Structure (SMILES): Cc1nccc2[nH]c(=O)c(CC(=O)N[C@H](C)c3ccncc3)c(C)c12 (single isomer, unassigned) [compound 333]
- Ventricular EC25 [1, 7]: 100.00 µM
- Skeletal EC25 [2, 8]: 100000 nM
- Atrial EC25 [3, 9]: 100.00 µM

Structure (SMILES): Cc1cc(C#N)nnc1[C@H](C)NC(=O)Cc1c(C)c2c(F)c(F)ccc2[nH]c1=O [compound 1136]
- Ventricular EC25 [1, 4]: 0.12 µM
- Skeletal EC25 [2, 5]: 50 nM
- Atrial EC25 [3, 6]: 0.14 µM

Structure (SMILES): O=C(Cc1cc2c(F)c(F)ccc2[nH]c1=O)N[C@@H]1COc2ncccc21 (single isomer, unassigned) [compound 63]
- Ventricular EC25 [1, 4]: 62.72 µM
- Skeletal EC25 [2, 5]: 1550 nM
- Atrial EC25 [3, 6]: 0.42 µM

Structure (SMILES): Cc1c(CC(=O)N[C@@H](CO)c2ccc(F)cc2F)c(=O)[nH]c2ccnc(C#N)c12 [compound 230]
- Ventricular EC25 [1, 7]: 0.96 µM
- Skeletal EC25 [2, 8]: 20 nM
- Atrial EC25 [3, 9]: 0.11 µM

Structure (SMILES): Cc1c(CC(=O)N[C@H](C)c2ncc(F)cc2F)c(=O)[nH]c2ccnc(C(F)(F)F)c12 (single isomer, unassigned) [compound 265]
- Ventricular EC25 [1, 7]: 100.00 µM
- Skeletal EC25 [2, 8]: 3860 nM
- Atrial EC25 [3, 9]: 100.00 µM

Structure (SMILES): Cc1c(C2(C(=O)N[C@H](C)c3cccc(C#N)n3)CC2)c(=O)[nH]c2ccc(F)c(F)c12 (single isomer, unassigned) [compound 2547]
- Ventricular EC25 ([1]; ‡ Y125 value, not a Y75 value (125% activity relative to no compound), porcine ventricle myofibrils): 58.38‡ μM
- Skeletal EC25 [2, 5]: 910 nM
- Atrial EC25 ([3]; ‡ Y125 value, not a Y75 value (125% activity relative to no compound), porcine atria myofibrils): 100.00‡ μM

Structure (SMILES): N#Cc1ccc([C@@H](CO)NC(=O)Cc2c(C3CC3)c3cc(F)ccc3[nH]c2=O)c(F)c1 [compound 75]
- Ventricular EC25 [1, 4]: 0.61 µM
- Skeletal EC25 [2, 5]: 15210 nM
- Atrial EC25 [3, 6]: 59.37 µM

Structure (SMILES): CCc1c(CC(=O)N[C@H](C)c2ncc(C#N)cn2)c(=O)[nH]c2ccc(F)c(C)c12 (single isomer, unassigned) [compound 2001]
- Ventricular EC25 [1, 4]: 0.49 µM
- Skeletal EC25 [2, 5]: 270 nM
- Atrial EC25 [3, 6]: 0.33 µM

Structure (SMILES): Cc1nc([C@@H](C)NC(=O)Cc2c(C)c3c(C)c(F)ccc3[nH]c2=O)ncc1C#N (single isomer, unassigned) [compound 4837]
- Ventricular EC25 [1, 4]: 3.67 µM
- Skeletal EC25 [2, 5]: 210 nM
- Atrial EC25 [3, 6]: 1.90 µM

Structure (SMILES): Cc1ccncc1[C@H](C)NC(=O)Cc1c(C)c2c(C)c(F)ccc2[nH]c1=O [compound 1047]
- Ventricular EC25 [1, 4]: 1.13 µM
- Skeletal EC25 [2, 5]: 100000 nM
- Atrial EC25 [3, 6]: 100.00 µM

Structure (SMILES): C[C@H](NC(=O)[C@@H](C)c1cc2c(Br)nccc2[nH]c1=O)c1ccc(F)cc1F (single isomer, unassigned) [compound 344]
- Ventricular EC25 [1, 7]: 90.74 µM
- Skeletal EC25 [2, 8]: 230 nM
- Atrial EC25 [3, 9]: 9.52 µM

Structure (SMILES): Cc1c(CC(=O)N[C@H](c2ccc(F)cc2F)C(C)(C)O)c(=O)[nH]c2ccnc(C#N)c12 (single isomer, unassigned) [compound 280]
- Ventricular EC25 [1, 7]: 100.00 µM
- Skeletal EC25 [2, 8]: 24760 nM
- Atrial EC25 [3, 9]: 100.00 µM

Structure (SMILES): Cc1c(CC(=O)N[C@H](CO)c2ccc(F)cc2F)c(=O)[nH]c2ccnc(OC3CC3)c12 [compound 199]
- Ventricular EC25 [1, 7]: 67.50 µM
- Skeletal EC25 [2, 8]: 13030 nM
- Atrial EC25 [3, 9]: 100.00 µM

Structure (SMILES): C[C@H](NC(=O)Cc1cc2c(F)c(F)ccc2[nH]c1=O)c1ccc(C#N)cn1 [compound 18]
- Ventricular EC25 [1, 4]: 0.26 µM
- Skeletal EC25 [2, 5]: 80 nM
- Atrial EC25 [3, 6]: 0.09 µM

Structure (SMILES): C[C@@H](NC(=O)Cc1c(C#N)c2cc(F)c(F)cc2[nH]c1=O)c1ccc(C#N)cn1 (single isomer, unassigned) [compound 2047]
- Ventricular EC25 [1, 4]: 47.78 µM
- Skeletal EC25 [2, 5]: 30480 nM
- Atrial EC25 [3, 6]: 25.33 µM

Structure (SMILES): C[C@H](NC(=O)C1(c2cc3c(F)c(F)ccc3[nH]c2=O)CC1)c1ncc(C#N)cn1 (single isomer, unassigned) [compound 2550]
- Ventricular EC25 [1, 4]: 77.93 µM
- Skeletal EC25 [2, 5]: 1220 nM
- Atrial EC25 [3, 6]: 1.39 µM

Structure (SMILES): C[C@H](NC(=O)[C@H](C)c1c(C(F)(F)F)c2c(F)cccc2[nH]c1=O)c1ccc(F)cc1F (single isomer, unassigned) [compound 98]
- Ventricular EC25 [1, 4]: 4.12 µM
- Skeletal EC25 [2, 5]: 60 nM
- Atrial EC25 [3, 6]: 0.53 µM

Structure (SMILES): Cc1c(CC(=O)N[C@@H](C)c2ccc(F)cc2F)c(=O)[nH]c2ccnc(OCC(F)F)c12 [compound 380]
- Ventricular EC25 [1, 7]: 0.77 µM
- Skeletal EC25 [2, 8]: 10 nM
- Atrial EC25 [3, 9]: 0.06 µM

Structure (SMILES): Cc1nccc2[nH]c(=O)c(CC(=O)N[C@H](C)c3ccc(C#N)cc3F)c(C)c12 (single isomer, unassigned) [compound 255]
- Ventricular EC25 [1, 7]: 1.77 µM
- Skeletal EC25 [2, 8]: 710 nM
- Atrial EC25 [3, 9]: 1.30 µM

Structure (SMILES): Cc1c(CC(=O)N[C@@H](CO)c2ncc(F)cc2F)c(=O)[nH]c2ccc(C#N)nc12 [compound 260]
- Ventricular EC25 [1, 7]: 100.00 µM
- Skeletal EC25 [2, 8]: 33760 nM
- Atrial EC25 [3, 9]: 2.40 µM

Structure (SMILES): Cc1c(C(F)(F)C(=O)N[C@H](C)c2cccc(C#N)n2)c(=O)[nH]c2ccc(F)cc12 (single isomer, unassigned) [compound 2565]
- Ventricular EC25 [1, 4]: 100.00 µM
- Skeletal EC25 [2, 5]: 100000 nM
- Atrial EC25 [3, 6]: 14.39 µM
